Test results from ChEMBL document CHEMBL4270535, “Facile synthesis of vanillin-based novel bischalcones identifies one that induces apoptosis and displays synergy with Artemisinin in killing chloroquine resistant Plasmodium falciparum” (Eur J Med Chem, 2018).
The source made the active and inactive calls. No cut-off for these calls is given here.

What was measured:
[1] = tested on: Plasmodium falciparum; test: Synergistic antiplasmodial activity against synchronized ring stage of chloroquine-resistant Plasmodium falciparum INDO infected in human erythrocytes assessed as FIC index in presence of chloroquine; type: functional
[2] = tested on: Plasmodium falciparum; test: Antiplasmodial activity against synchronized ring stage of chloroquine-resistant Plasmodium falciparum INDO infected in human erythrocytes assessed as parasite growth inhibition at 8 uM treated for 6 to 48 hrs by Giemsa staining based microscopic analysis; type: functional, organism-based
[3] = tested on: Plasmodium falciparum; test: (§1) Synergistic antiplasmodial activity against synchronized trophozoite stage of chloroquine-resistant Plasmodium falciparum INDO infected in human erythrocytes assessed as parasite growth inhibition at FIC90 treated for 18 to 24 hrs followed by compound wash out measured after 48 to 54 hrs in presence of chloroquine by Giemsa staining based microscopic analysis; type: functional, organism-based
[4] = tested on: Plasmodium falciparum; test: Induction of mitochondrial membrane potential loss in synchronized trophozoite stage of chloroquine-resistant Plasmodium falciparum INDO infected in human erythrocytes at 8 uM after 18 to 24 hrs by fluorescence microscopic analysis; type: functional, organism-based
[5] = tested on: Plasmodium falciparum; test: Induction of apoptosis in synchronized trophozoite stage of chloroquine-resistant Plasmodium falciparum INDO infected in human erythrocytes assessed as activation of caspase-like protease at 8 uM after 12 hrs by Caspase FITC-VAD-FMK substrate based fluorescence microscopic analysis; type: functional, organism-based
[6] = tested on: Plasmodium falciparum; test: Antiplasmodial activity against synchronized trophozoite stage of chloroquine-resistant Plasmodium falciparum INDO infected in human erythrocytes assessed as parasite growth inhibition at 8 uM treated for 18 to 24 hrs by Giemsa staining based microscopic analysis; type: functional, organism-based
[7] = tested on: Plasmodium falciparum; test: (§2) Synergistic antiplasmodial activity against synchronized ring stage of chloroquine-resistant Plasmodium falciparum INDO infected in human erythrocytes assessed as parasite growth inhibition at FIC90 treated for 6 to 48 hrs followed by compound wash out measured after 48 to 90 hrs in presence of artemisinin by Giemsa staining based microscopic analysis; type: functional, organism-based
[8] = tested on: Plasmodium falciparum; test: Induction of apoptosis in synchronized trophozoite stage of chloroquine-resistant Plasmodium falciparum INDO infected in human erythrocytes assessed as parasite killing at 8 uM up to 24 hrs by Giemsa staining based microscopic analysis; type: functional, organism-based
[9] = tested on: Plasmodium falciparum; test: Induction of apoptosis in synchronized trophozoite stage of chloroquine-resistant Plasmodium falciparum INDO infected in human erythrocytes assessed as chromatin fragmentation at 8 uM by Hoechst 33342 staining based fluorescence microscopic analysis; type: functional, organism-based; conditions: TDE = time-dependent effect
[10] = tested on: Plasmodium falciparum; test: as §1, with “schizont” for “trophozoite”, “2 times FIC100” for “FIC90”, “12” for “18 to 24”, “48” for “48 to 54”; type: functional, organism-based
[11] = tested on: Plasmodium falciparum; test: Induction of apoptosis in synchronized trophozoite stage of chloroquine-resistant Plasmodium falciparum INDO infected in human erythrocytes assessed as activation of caspase-like protease at 8 uM after 12 hrs by Caspase FITC-VAD-FMK substrate based flow cytometry; type: functional, organism-based
[12] = tested on: Plasmodium falciparum; test: Synergistic antiplasmodial activity against synchronized ring stage of chloroquine-sensitive Plasmodium falciparum 3D7 infected in human erythrocytes assessed as FIC index in presence of chloroquine; type: functional
[13] = tested on: Plasmodium falciparum; test: as §1, with “schizont” for “trophozoite”, “12” for “18 to 24”, “48” for “48 to 54”; type: functional, organism-based
[14] = tested on: Plasmodium falciparum; test: as §2, with “plasmodicidal” for “antiplasmodial”, “schizont” for “ring”, “killing” for “growth inhibition”, “2 times FIC100” for “FIC90”, “12” for “6 to 48”, “48” for “48 to 90”; type: functional, organism-based
[15] = tested on: Plasmodium falciparum; test: Synergistic antiplasmodial activity against synchronized ring stage of chloroquine-sensitive Plasmodium falciparum 3D7 infected in human erythrocytes assessed as FIC index in presence of artemisinin; type: functional
[16] = tested on: Plasmodium falciparum; test: as §1, with “plasmodicidal” for “antiplasmodial”, “killing” for “growth inhibition”, “24 hrs followed by compound wash out measured after 48 to 54” for “24”; type: functional, organism-based
[17] = tested on: Plasmodium falciparum; test: (§3) Synergistic plasmodicidal activity against synchronized ring stage of chloroquine-resistant Plasmodium falciparum INDO infected in human erythrocytes assessed as parasite killing at FIC90 treated for 6 to 48 hrs followed by compound wash out measured after 48 to 90 hrs followed by compound wash out measured after 48 to 90 hrs in presence of chloroquine by Giemsa staining based microscopic analysis; type: functional, organism-based
[18] = tested on: Plasmodium falciparum; test: (§4) Synergistic plasmodicidal activity against synchronized trophozoite stage of chloroquine-resistant Plasmodium falciparum INDO infected in human erythrocytes assessed as parasite killing at 2 times FIC100 treated for 18 to 24 hrs followed by compound wash out measured after 48 to 54 hrs followed by compound wash out measured after 48 to 54 hrs in presence of artemisinin by Giemsa staining based microscopic analysis; type: functional, organism-based
[19] = tested on: Plasmodium falciparum; test: (§5) Induction of apoptosis in synchronized trophozoite stage of chloroquine-resistant Plasmodium falciparum INDO infected in human erythrocytes assessed as translocation of phosphatidylserine from inner to outer leaflet of plasma membrane at 8 uM after 12 hrs by Annexin-V/Alexa fluor-488 staining based fluorescence microscopic analysis; type: functional, organism-based
[20] = tested on: Plasmodium falciparum; test: Antiplasmodial activity against synchronized ring stage of chloroquine-sensitive Plasmodium falciparum 3D7 infected in human erythrocytes after 48 hrs by SYBR Green 1 dye based fluorescence assay; type: functional, organism-based; conditions: 3D7, 48 h
[21] = tested on: Plasmodium falciparum; test: as §1, with “presence of artemisinin by Giemsa” for “presence of chloroquine by Giemsa”; type: functional, organism-based
[22] = tested on: Plasmodium falciparum; test: (§6) Plasmodicidal activity against synchronized ring stage of chloroquine-resistant Plasmodium falciparum INDO infected in human erythrocytes assessed as parasite killing at 8 uM treated for 6 to 48 hrs followed by compound wash out measured after 48 to 90 hrs by Giemsa staining based microscopic analysis; type: functional, organism-based
[23] = tested on: Plasmodium falciparum; test: as §3, with “presence of artemisinin by Giemsa” for “presence of chloroquine by Giemsa”; type: functional, organism-based
[24] = tested on: Plasmodium falciparum; test: Synergistic antiplasmodial activity against synchronized ring stage of chloroquine-resistant Plasmodium falciparum INDO infected in human erythrocytes assessed as FIC index in presence of artemisinin; type: functional
[25] = tested on: Plasmodium falciparum; test: as §6, with “synchronized trophozoite” for “synchronized ring”, “for 18” for “for 6”, “to 24” for “to 48”, “to 54” for “to 90”; type: functional, organism-based
[26] = tested on: Plasmodium falciparum; test: as §2, with “2 times FIC100” for “FIC90”, “chloroquine” for “artemisinin”; type: functional, organism-based
[27] = Resistance index, ratio of IC50 for synchronized ring stage of chloroquine-resistant Plasmodium falciparum Dd2 infected in human erythrocytes to IC50 for synchronized ring stage of chloroquine-sensitive Plasmodium falciparum 3D7 infected in human erythrocytes; type: functional
[28] = tested on: Plasmodium falciparum; test: Antiplasmodial activity against synchronized ring stage of chloroquine-resistant Plasmodium falciparum INDO infected in human erythrocytes after 48 hrs by SYBR Green 1 dye based fluorescence assay; type: functional, organism-based
[29] = tested on: Plasmodium falciparum; test: as §4, with “FIC90” for “2 times FIC100”; type: functional, organism-based
[30] = Resistance index, ratio of IC50 for synchronized ring stage of chloroquine-resistant Plasmodium falciparum INDO infected in human erythrocytes to IC50 for synchronized ring stage of chloroquine-sensitive Plasmodium falciparum 3D7 infected in human erythrocytes; type: functional
[31] = Selectivity index, ratio of IC50 for mouse L929 cells to IC50 for synchronized ring stage of chloroquine-sensitive Plasmodium falciparum 3D7 infected in human erythrocytes; type: toxicity, cell-based; conditions: read-out: Ratio IC50
[32] = tested on: Plasmodium falciparum; test: Induction of apoptosis in synchronized trophozoite stage of chloroquine-resistant Plasmodium falciparum INDO infected in human erythrocytes assessed as chromatin fragmentation at 8 uM after 24 hrs by agarose gel electrophoresis method; type: functional, organism-based
[33] = tested on: Plasmodium falciparum; test: Plasmodicidal activity against synchronized schizont stage of chloroquine-resistant Plasmodium falciparum INDO infected in human erythrocytes assessed as parasite killing at 8 uM treated for 12 hrs followed by compound wash out measured after 48 hrs by Giemsa staining based microscopic analysis; type: functional, organism-based
[34] = Selectivity index, ratio of IC50 for human HeLa cells to IC50 for synchronized ring stage of chloroquine-sensitive Plasmodium falciparum 3D7 infected in human erythrocytes; type: toxicity, cell-based; conditions: read-out: Ratio IC50
[35] = tested on: Plasmodium falciparum; test: as §1, with “2 times FIC100” for “FIC90”; type: functional, organism-based
[36] = tested on: Plasmodium falciparum; test: as §5, with “flow cytometry” for “fluorescence microscopic analysis”; type: functional, organism-based
[37] = tested on: Plasmodium falciparum; test: as §2, with “chloroquine” for “artemisinin”; type: functional, organism-based
[38] = tested on: Plasmodium falciparum; test: as §3, with “killing at 2 times FIC100 treated for” for “killing at FIC90 treated for”, “presence of artemisinin by Giemsa” for “presence of chloroquine by Giemsa”; type: functional, organism-based
[39] = tested on: Plasmodium falciparum; test: as §2, with “schizont” for “ring”, “12” for “6 to 48”, “48” for “48 to 90”; type: functional, organism-based
[40] = tested on: Plasmodium falciparum; test: Antiplasmodial activity against synchronized schizont stage of chloroquine-resistant Plasmodium falciparum INDO infected in human erythrocytes assessed as parasite growth inhibition at 8 uM treated for 12 hrs by Giemsa staining based microscopic analysis; type: functional, organism-based
[41] = tested on: Plasmodium falciparum; test: Synergistic antiplasmodial activity against synchronized ring stage of chloroquine-sensitive Plasmodium falciparum 3D7 infected in human erythrocytes assessed as ratio of IC50 in absence of artemisinin to IC50 in presence of artemisinin; type: functional
[42] = tested on: Plasmodium falciparum; test: Antiplasmodial activity against synchronized ring stage of chloroquine-resistant Plasmodium falciparum Dd2 infected in human erythrocytes after 48 hrs by SYBR Green 1 dye based fluorescence assay; type: functional, organism-based; conditions: Dd2, 48 h
[43] = tested on: Plasmodium falciparum; test: Potentiation of artemisinin-induced antiplasmodial activity against synchronized ring stage of chloroquine-sensitive Plasmodium falciparum 3D7 infected in human erythrocytes assessed as fold reduction in artemisinin IC50 relative to artemisinin alone; type: functional

C=CCc1cc(/C=C/C(=O)c2cccc(C(=O)/C=C/c3cc(CC=C)c(OC)c(OC)c3)c2)cc(OC)c1OC
fractional inhibitory concentration index (FICI) [1]: 0.7 - 1.23 | Activity [2]: Active | Activity [3]: Active | Activity [4]: Active | Activity [5]: Active | Activity [6]: Active | Activity [7]: Active | Activity [8]: Active | Activity [9]: Tde | Activity [10]: Active | Activity [11]: Active | fractional inhibitory concentration index (FICI) [12]: 1.38 - 3.34 | Activity [13]: Active | Activity [14]: inactive | fractional inhibitory concentration index (FICI) [15]: 1.33 - 1.58 | Activity [16]: inactive | Activity [17]: inactive | Activity [18]: inactive | Activity [19]: Active | IC50 [20]: 2500 nM | Activity [21]: Active | Activity [22]: Active | Activity [23]: inactive | fractional inhibitory concentration index (FICI) [24]: 0.46 - 0.58 | Activity [25]: Active | Activity [26]: Active | Ratio IC50 [27]: 1.4 | IC50 [28]: 3800 nM | Activity [29]: inactive | Ratio IC50 [30]: 1.5 | selectivity ratio [31]: 8.8 | Activity [32]: Active | Activity [33]: Active | selectivity ratio [34]: 11.2 | Activity [35]: Active | Activity [36]: Active | Activity [37]: Active | Activity [38]: Active | Activity [39]: Active | Activity [40]: Active | Ratio IC50 [41]: 20 - 311 | IC50 [42]: 3500 nM

C[C@@H]1CC[C@H]2[C@@H](C)C(=O)O[C@@H]3O[C@@]4(C)CC[C@@H]1[C@]32OO4 [ARTEMISININ]
Ratio IC50 [43]: 1.7 - 3.7 | Ratio IC50 [27]: 0.87 | IC50 [28]: 15 nM | Ratio IC50 [30]: 1 | selectivity ratio [31]: > 200 | selectivity ratio [34]: > 200 | IC50 [42]: 13 nM
